Results on 15 substances are retold here after US7175981B2, “Method of diagnosing stage or aggressiveness of breast and prostate cancer based on levels of fatty acid binding proteins” (The United States of America as represented by the …, priority 1998, dated 2007).

For data set [1], the system named is wild type MCF-7 human breast cancer cells. The data set is described as follows: MCF-7 proliferation assay, wild type cells (cytofluor). The class given is cell-based. The settings on record: WT MCF-7 breast cancer cells. From the text: (§1) Tables 1 and 2 show the concentrations required for IC50 inhibition in cultures of wild type and multi-drug resistant MCF-7 human breast cancer cells, respectively. These tables show polyoxotungstates used on MCF-7 proliferation assay.

For data set [2], the system named is multi-drug resistant MCF-7 ADR human breast cancer cells. Put plainly: MCF-7 proliferation assay, multi-drug resistant cells (cytofluor). The settings on record: ADR MCF-7 breast cancer cells. The class given is cell-based.
From the text: as §1

Data set [3] concerns E-FABP. The data set is described as follows: RT-PCR of E-FABP expression in MCF-7 cells grown with drug. The data set is classed as cell-based, human. The settings on record: 1 uM, 48 hr. As for the experimental part:
(§2) FIGS. 17a and 17b are graphs showing MCF-7 cells grown in the presence of 1 uM HPA-Na for 48 hr and RNA isolated for FABP measurement.
(§3) For RT-PCR, equal amounts of RNA were used for the reverse transcriptase reaction to make cDNA. The cDNA was then used for the PCR reaction using specific primers for the different fatty acid binding proteins. Also, PCR was performed for genes such as Actin whose level stays generally the same in all the samples. The PCR products were resolved on agarose gel and the picture under UV was saved in the computer as a TIFF file. Using the NIH Image Program 1.6–1, gel optical units were digitized and obtained for each band observed. The values of the FABP PCR fragments were therefore normalized to the Actin values for each sample. In the figures, the data is represented in Optical Density Units versus the FABP and cell type from Breast and Prostate tissues.
(§4) The RNA was isolated using the Trizol method and RT-PCR analysis of the proteins was performed by using primers specific for each FABP. Equal amount of RNA was used for RT-PCR and PCR master mix was used to avoid any handling errors. […] The method of quantitation of PCR product was as follows: for internal quantitation control actin primers was used, all the gels were scanned in a gel scanner and digitized using the NIH-Image program for quantitation. […]

The subject of data set [4] is A-FABP. Put plainly: RT-PCR of A-FABP expression in MCF-7 cells grown with drug. The data set is classed as cell-based, human. The settings on record: 1 uM, 48 hr. As for the experimental part: as §2, §3, §4
For the next data set, the system named is brain-FABP. The data set is described as follows: RT-PCR of brain-FABP expression in MCF-7 cells grown with drug. The data set is classed as cell-based, human. The settings on record: 1 uM, 48 hr. As for the experimental part: as §2, §3, §4
Data set [5] relates to A-FABP. Put plainly: RT-PCR of A-FABP expression in LNCAP cells grown with drug. The class given is cell-based, human. The settings on record: 1 uM, 48 hr, listed as HPA-Na. As for the experimental part: (§5) FIG. 18 is a graph showing LNCAP cells grown in the presence of 1 uM HPA-Na for 48 hr. At that time, cells were harvested, RNA prepared by the method of TRIZOL, and levels of various FABPs were measured by RT-PCR.
as §3
(§6) The RNA was isolated using the Trizol method and RT-PCR analysis of the proteins was performed by using primers specific for each FABP. […] The method of quantitation of PCR product was as follows: for internal quantitation control actin primers was used, all the gels were scanned in a gel scanner and digitized using the NIH-Image program for quantitation. […]

The next data set relates to I-FABP. The data set is described as follows: RT-PCR of I-FABP expression in LNCAP cells grown with drug. The data set is classed as cell-based, human. The settings on record: in the presence of drug, listed as HPA-Na. As for the experimental part: as §5, §3, §6
Data set [6] concerns E-FABP. Put plainly: RT-PCR of E-FABP expression in LNCAP cells grown with drug. The data set is classed as cell-based, human. As to conditions: 1 uM. As for the experimental part: as §5, §3, §6
Data set [7] can be described thus: Toxicity in mice (body weight, necropsy). The class given is in vivo. As to conditions: subcutaneously, weekly for 10 weeks. As for the experimental part:
We have identified a class of heteropolyanions that have anticancer activity. This class consists of metal ion derivatives of polyoxotungstate, hereinafter referred to as HPA. These heteropolyanions (HPA) are synthesized by methods outlined in Heteropoly and Isopoly Oxometalates, Michael Thor Pope, Springer Verlag, Berlin, Germany 1983. They are water soluble and stable at room temperature and are effective at very low concentrations (1 μM) in cell cultures. […] Oral and intramuscular administration were also tested. Drugs were dissolved in aqueous solutions for administration. Preferred HPA drugs are HPA-Na and HPA-Sm.

In the next data set the test system is LNCAP prostate cells. The data set is described as follows: Growth of prostate cancer cells (Cytofluor). The settings on record: prostate (and breast) cancer cells. The class given is cell-based, human.
Where [8] appears, read: experiment 1, read-out: IC50 (Exp. 1).
Setting [9] is: experiment 2, read-out: IC50 (Exp. #2).

Entries after “also recorded” stand apart in the source; their conditions may differ. Where two headings read alike, the source gives them in different places.

One may read the IC50 as the point on the concentration scale where inhibition reaches its midpoint. For K12.5Na1.5[NaP5W30O110] · nH2O, the IC50 in data set [1] (setting [8]) was found to be 3.8 µM; in data set [1] (setting [9]), 3.5 µM; in data set [2] (setting [9]) it was 2.1 µM. Also, the figures for the “change in level of E-FABP” value in the data set with E-FABP [3] and in the data set on E-FABP [6] were “dramatically increased” and “altered in a similar manner”, respectively. Besides, the “change in level of A-FABP” value is “dramatically increased” in the data set on A-FABP [4] and “increased the levels of A-FABP in LNCAP to a level similar to the normal values; also recorded: increasing A-FABP; also recorded: markedly elevated” in the data set with A-FABP [5]. For the same substance, the “change in level of brain-FABP” value with brain-FABP is listed as “decreased significantly”. For the same substance, the “change in level of I-FABP” value in the data set on I-FABP was “decreasing I-FABP; also recorded: decrease”. The “toxicity in mice (weights, necropsy)” value in data set [7] was “no indications of toxicity was observed”. Besides, the “effect on proliferation of cancer cells” value in the data set with LNCAP prostate cells was “blocked”.
Regarding K12[BiP5W30O110] · nH2O, the IC50 in data set [1] (setting [9]) was found to be 5 µM; in data set [2] (setting [8]), 3 µM; in data set [2] (setting [9]) it was 2.5 µM.
Turning to K12[CeP5W30O110] · nH2O, the IC50 in data set [1] (setting [8]) was determined as 4.3 µM; in [1] (setting [9]), 5 µM; in [2] (setting [8]), 3.8 µM; in data set [2] (setting [9]), 3 µM.
As for K12[DyP5W30O110] · nH2O, the IC50 worked out at 4.3 µM in [1] (setting [8]), 5 µM in data set [1] (setting [9]), 3.8 µM in data set [2] (setting [8]) and 2.3 µM in data set [2] (setting [9]).
Turning to K12[ErP5W30O110] · nH2O, the IC50 in data set [1] (setting [8]) was determined as 4.3 µM; in [1] (setting [9]), 6 µM; in data set [2] (setting [8]) it was 4 µM; in data set [2] (setting [9]), 1 µM.
In the case of K12[EuP5W30O110] · nH2O, the IC50 in data set [1] (setting [9]) amounted to 4.5 µM; in [2] (setting [8]), 0.25 µM; in [2] (setting [9]), 3.8 µM.
Turning to K12[GdP5W30O110] · nH2O, the IC50 in data set [1] (setting [8]) worked out at 2 µM; in data set [1] (setting [9]), 8 µM; in data set [2] (setting [8]), 4.3 µM; in data set [2] (setting [9]) it was 4.6 µM.
For K12[HoP5W30O110] · nH2O, in that order: 3 µM, 4.5 µM, 0.25 µM and 4 µM.
For K12[LuP5W30O110] · nH2O, in that order: 1 µM, 5 µM, 4.5 µM and 5.5 µM.
For K12[SmP5W30O110] · nH2O, in that order: 0.5 µM, 2.5 µM, 3.8 µM and 4.1 µM.
As for K12[TbP5W30O110] · nH2O, the IC50 came to 1 µM in data set [1] (setting [8]), 8 µM in [1] (setting [9]), 3.5 µM in data set [2] (setting [8]) and 4.9 µM in data set [2] (setting [9]).
The matching figures for K12[TmP5W30O110] · nH2O: 0.25 µM, 10 µM, 4 µM and 6 µM.
The matching figures for K12[UP5W30O110] · nH2O: 1 µM, 10 µM, 5.8 µM and 4.8 µM.
Turning to K12[YbP5W30O110] · nH2O, the IC50 in [1] (setting [8]) turned out to be 3.8 µM; in [1] (setting [9]) it was 3.7 µM; in data set [2] (setting [8]), 5 µM; in data set [2] (setting [9]), 6.3 µM.
The matching figures for K13[CaP5W30O110] · nH2O: 4.5 µM, 5 µM, 3.8 µM and 6.8 µM.
